Test results from patent publication US20210261621A1, “Preparation of Dilipid Polymixins and Use Thereof as Antimicrobial Adjuvants” (priority 2018, published 2021).
Converted amounts (≈) assume the structure as drawn. Read-outs that look alike come from different tables or passages of the source. Positions of bridges follow the written chain, without caps; N, C: chain ends. Non-standard residues stand in square brackets, D forms with d. Residues, ends and D or L forms follow the SMILES beside them. *: point of attachment. Benzoyl(4-Ph) = O=C(c1ccc(-c2ccccc2)cc1)*; Octanoyl = CCCCCCCC(=O)*; Dab = NCC[C@H](N)C(=O)O; Butyryl = CCCC(=O)*

Columns and labels:
[1] = test system: MRSA ATCC 33592; type: cell-based, Staphylococcus aureus; conditions: for fold better MIC than colistin: methicillin-resistant Staphylococcus aureus
Description: (§1) Bacterial strains were either obtained from the American Type Culture Collection (ATCC), Canadian National Intensive Care Unit (CAN-ICU) surveillance study or the Canadian Ward Surveillance (CANWARD) study. Strains from both CAN-ICU and CANWARD are isolates recovered from patients diagnosed with a presumed infectious disease that were admitted in a participating medical center across Canada. Efflux-deficient strain PAO200 (lacking MexAB-OprM efflux system) and PA0750 (lacking MexAB-OprM, MexCD-OprJ, MexEF-OprN, MexJK and MexXY efflux systems, and the outer membrane protein OpmH) were kindly gifted by Dr. Ayush Kumar (University of Manitoba).
(§2) The in vitro antibacterial activity of the compounds studied were assessed by broth microdilution susceptibility testing following CLSI guidelines. Bacterial cultures were grown overnight prior to the assay. The overnight grown cultures were diluted in saline to 0.5 McFarland turbidity, followed by 1:50 dilution in Mueller-Hinton broth (MHB) for inoculation to a final concentration of approximately 5×10^5 colony forming units/mL. Testing was performed on 96-well plates where the tested compounds were 2-fold serially diluted in MHB and incubated with equal volumes of bacterial inoculum at 37° C. for 18 h. […] Wells containing MHB with or without bacterial cells were used as positive or negative control, respectively.

[2] = test system: S. aureus ATCC 29213; type: cell-based, Staphylococcus aureus
Description: as §1, §2

[3] = test system: E. faecalis ATCC 29212; type: cell-based
Description: as §1, §2

[4] = test system: E. faecium ATCC 27270; type: cell-based
Description: as §1, §2

[5] = test system: S. pneumoniae ATCC 49619; type: cell-based
Description: as §1, §2

[6] = test system: E. coli CANWARD-2011 97615; type: cell-based, Escherichia coli
Description: as §1, §2

[7] = test system: P. aeruginosa ATCC 27853; type: cell-based, Pseudomonas aeruginosa
Description: as §1, §2

[8] = test system: P. aeruginosa CAN-ICU 62308; type: cell-based, Pseudomonas aeruginosa
Description: as §1, §2

[9] = test system: P. aeruginosa CANWARD-2011 96846; type: cell-based, Pseudomonas aeruginosa
Description: as §1, §2

[10] = test system: P. aeruginosa PA095; type: cell-based, Pseudomonas aeruginosa
Description: as §1, §2

[11] = test system: P. aeruginosa PA100036; type: cell-based, Pseudomonas aeruginosa
Description: as §1, §2

[12] = test system: P. aeruginosa PA101885; type: cell-based, Pseudomonas aeruginosa
Description: as §1, §2

[13] = test system: P. aeruginosa PA259-96918; type: cell-based, Pseudomonas aeruginosa
Description: as §1, §2

[14] = test system: P. aeruginosa PA260-97103; type: cell-based, Pseudomonas aeruginosa
Description: as §1, §2

[15] = test system: P. aeruginosa PA262-101856; type: cell-based, Pseudomonas aeruginosa
Description: as §1, §2

[16] = test system: P. aeruginosa PA264-104354; type: cell-based, Pseudomonas aeruginosa
Description: as §1, §2

[17] = test system: P. aeruginosa PAO1; type: cell-based, Pseudomonas aeruginosa
Description: as §1, §2

[18] = test system: K. pneumoniae 116381; type: cell-based, Klebsiella pneumoniae
Description: as §1, §2

[19] = test system: K. pneumoniae ATCC 13883; type: cell-based, Klebsiella pneumoniae
Description: as §1, §2

[20] = test system: pig erythrocytes
Description: The ability of the compounds to lyse eukaryotic red blood cells was measured by the amount of hemoglobin released upon incubation with pig erythrocytes, following a published protocol [30]. Briefly, fresh pig blood (generously provided by Dr. Richard Hodges, Director of Animal Care and Veterinary Services of the University of Manitoba) drawn from a pig's antecubital vein was centrifuged at 1000 g for 5 min at 4° C., washed with phosphate-buffered saline (PBS) three times, and re-suspended in the same buffer, consecutively. Compounds at study were 2-fold serially diluted in PBS on a 96-well plate and mixed with equal volumes of erythrocyte solution. Post 1 h incubation at 37° C., the intact cells were pelleted by centrifugation at 1000 g for 5 min at 4° C. Resulting supernatant was then transferred to a new 96-well plate. The hemoglobin released was then measured via an EMax Plus microplate reader (Molecular Devices, USA) at 570 nm wavelength. Erythrocytes in PBS with or without 0.1% Triton X-100 were used as positive or negative control, respectively.

[21] = MRSA ATCC 33592 (methicillin-resistant Staphylococcus aureus)

Row | Compound | fold better MIC than colistin [1] [fold] | MIC [6] [µg/mL] | MIC [9] [µg/mL] | MIC ([10]; PA095) [µg/mL] | MIC ([12]; PA101885) [µg/mL] | MIC ([13]; PA259-96918) [µg/mL] | MIC ([14]; PA260-97103) [µg/mL] | MIC ([16]; PA264-104354) [µg/mL] | MIC [1, 21] [µg/mL] | MIC ([2]; S. aureus ATCC 29213) [µg/mL] | MIC ([3]; E. faecalis ATCC 29212) [µg/mL] | MIC ([4]; E. faecium ATCC 27270) [µg/mL] | MIC ([5]; S. pneumoniae ATCC 49619) [µg/mL] | MIC ([7]; P. aeruginosa ATCC 27853) [µg/mL] | MIC ([8]; P. aeruginosa CAN-ICU 62308) [µg/mL] | MIC ([11]; P. aeruginosa PA100036) [µg/mL] | MIC ([15]; P. aeruginosa PA262-101856) [µg/mL] | MIC ([17]; P. aeruginosa PAO1 (wild type)) [µg/mL] | MIC ([18]; K. pneumoniae 116381) [µg/mL] | MIC ([19]; K. pneumoniae ATCC 13883) [µg/mL] | other results
1 | CCCCCCCC(=O)NCC[C@H](NC(=O)CCCCCCC)C(=O)N[C@H](C(=O)N[C@@H](CCN)C(=O)N[C@H]1CCNC(=O)[C@H]([C@@H](C)O)NC(=O)[C@H](CCN)NC(=O)[C@H](CCN)NC(=O)[C@H](CC(C)C)NC(=O)[C@@H](Cc2ccccc2)NC(=O)[C@H](CCN)NC1=O)[C@@H](C)O [Compound 2, Dioctanoic Acid (Di-C8) Polymyxin] (Octanoyl-[Dab](Octanoyl)T[Dab][Dab][Dab][dF]L[Dab][Dab]T; lactam 4-C) | 32 | 64 (≈ 48.6 µM) | 8 (≈ 6.08 µM) | 2 (≈ 1.52 µM) | 4 (≈ 3.04 µM) | 2 (≈ 1.52 µM) | 2 (≈ 1.52 µM) | 4 (≈ 3.04 µM) | – | – | – | – | – | – | – | – | – | – | – | – | MIC ([1]; ATCC 33592): 16 µg/mL (≈ 12.2 µM); MIC ([2]; ATCC 29213): 16 µg/mL (≈ 12.2 µM); MIC ([3]; ATCC 29212): 32 µg/mL (≈ 24.3 µM); MIC ([4]; ATCC 27270): 16 µg/mL (≈ 12.2 µM); MIC ([5]; ATCC 49619): 32 µg/mL (≈ 24.3 µM); MIC ([7]; ATCC 27853): 8 µg/mL (≈ 6.08 µM); MIC ([8]; CAN-ICU 62308): 8 µg/mL (≈ 6.08 µM); MIC ([11]; PA100036): 4 µg/mL (≈ 3.04 µM); MIC ([15]; PA262-101856): 8 µg/mL (≈ 6.08 µM); MIC ([17]; PAO1): 4 µg/mL (≈ 3.04 µM); MIC [18]; 116381: >128 µg/mL; MIC ([19]; ATCC 13883): >128 µg/mL; % Hemolysis at 512 μg/mL of polymyxin [20]: 6.2%
2 | CCCC(=O)NCC[C@H](NC(=O)CCC)C(=O)N[C@H](C(=O)N[C@@H](CCN)C(=O)N[C@H]1CCNC(=O)[C@H]([C@@H](C)O)NC(=O)[C@H](CCN)NC(=O)[C@H](CCN)NC(=O)[C@H](CC(C)C)NC(=O)[C@@H](Cc2ccccc2)NC(=O)[C@H](CCN)NC1=O)[C@@H](C)O [Compound 1, Dibutyric Acid (Di-C4) Polymyxin] (Butyryl-[Dab](Butyryl)T[Dab][Dab][Dab][dF]L[Dab][Dab]T; lactam 4-C) | – | >128 | >128 | 64 (≈ 53.2 µM) | 128 (≈ 106 µM) | 64 (≈ 53.2 µM) | 2 (≈ 1.66 µM) | 128 (≈ 106 µM) | >128 | >128 | >128 | >128 | >128 | >128 | >128 | >128 | >128 | 128 (≈ 106 µM) | >128 | >128 | % Hemolysis at 512 μg/mL of polymyxin ([20]; red cells of pig, 1 h, 512): 1.1 ± 1.6%
3 | CC(C)C[C@@H]1NC(=O)[C@@H](Cc2ccccc2)NC(=O)[C@H](CCN)NC(=O)[C@@H](NC(=O)[C@H](CCN)NC(=O)[C@@H](NC(=O)[C@H](CCNC(=O)c2ccc(-c3ccccc3)cc2)NC(=O)c2ccc(-c3ccccc3)cc2)[C@@H](C)O)CCNC(=O)[C@H]([C@@H](C)O)NC(=O)[C@H](CCN)NC(=O)[C@H](CCN)NC1=O [Compound 5, Dibiphenyl-4-Carboxylic Acid (Di-Biphenyl) Polymyxin] ({Benzoyl(4-Ph)}-[Dab](Benzoyl(4-Ph))T[Dab][Dab][Dab][dF]L[Dab][Dab]T; lactam 4-C) | 32 | 32 (≈ 22.5 µM) | 64 (≈ 45 µM) | – | – | – | – | – | 16 (≈ 11.2 µM) | 8 (≈ 5.62 µM) | 16 (≈ 11.2 µM) | 8 (≈ 5.62 µM) | 32 (≈ 22.5 µM) | 32 (≈ 22.5 µM) | 16 (≈ 11.2 µM) | 8 (≈ 5.62 µM) | 8 (≈ 5.62 µM) | 8 (≈ 5.62 µM) | >128 | >128 | MIC ([10]; P. aeruginosa PA095): 4 µg/mL (≈ 2.81 µM); MIC ([12]; P. aeruginosa PA101885): 8 µg/mL (≈ 5.62 µM); MIC ([13]; P. aeruginosa PA259-96918): 8 µg/mL (≈ 5.62 µM); MIC ([14]; P. aeruginosa PA260-97103): 8 µg/mL (≈ 5.62 µM); MIC ([16]; P. aeruginosa PA264-104354): 8 µg/mL (≈ 5.62 µM)
